Values quoted from earlier work, collected in EP4062897A1, “HAIR CARE COMPOSITION AND PREPARATION METHOD THEREFOR” (BioRight Worldwide Company Limited, priority 2019, dated 2021).

Settings: in aqueous solution, typical value

Q: With `NC(=O)c1ccc[n+]([C@@H]2O[C@H](COP(=O)([O-])O)[C@@H](O)[C@H]2O)c1` [nicotinamide mononucleotide, Nicotinamide mononucleotide] as the compound, how does the half-life read?
A: The half-life was 14 days.
